Numbers after ± are expanded uncertainties.
Assay: xn = mol fraction of the nth substance listed
Details: 101 kPa, Liquid; for speed of sound: Sing-around technique in a fixed-path interferometer; for mass density: Vibrating tube method

CCCCCC[n+]1ccc(C)cc1.[Br-] [1-hexyl-4-methylpyridinium bromide] + O
Details	mass density, 308.15 K [kg/m3]	mass density, 318.15 K [kg/m3]	speed of sound, 308.15 K [m/s]	speed of sound, 318.15 K [m/s]
x2 = 0.0528	1214.12 ± 2.3	1207.39 ± 2.3	1586.8 ± 2.6	1557.9 ± 2.6
x2 = 0.1126	1213.44 ± 2.2	1206.62 ± 2.2	1583.6 ± 2.5	1557 ± 2.5
x2 = 0.2082	1211.69 ± 2.2	1204.8 ± 2.2	1579.1 ± 2.4	1555.2 ± 2.4
x2 = 0.2609	1210.34 ± 2.1	1203.43 ± 2.1	1575.7 ± 2.3	1554.2 ± 2.3
x2 = 0.3062	1208.9 ± 2.1	1202.01 ± 2.1	1573.2 ± 2.3	1553.2 ± 2.3
x2 = 0.4101	1204.56 ± 2.1	1197.72 ± 2.1	1568.4 ± 2.2	1551.7 ± 2.2
x2 = 0.4609	1201.71 ± 2.1	1194.91 ± 2	1565.3 ± 2.1	1550.7 ± 2.1
x2 = 0.5077	1198.65 ± 2	1191.88 ± 2	1563 ± 2.1	1549.8 ± 2.1
x2 = 0.6089	1189.79 ± 2	1183.07 ± 2	1557.2 ± 2	1547.7 ± 2
x2 = 0.6539	1184.57 ± 2	1177.87 ± 2	1553.3 ± 1.9	1546 ± 1.9
x2 = 0.7029	1177.58 ± 2	1170.89 ± 2	1547.7 ± 1.9	1544.7 ± 1.9
x2 = 0.7484	1169.44 ± 2	1162.78 ± 2	1542.9 ± 1.9	1543.5 ± 1.9
x2 = 0.8066	1155.56 ± 2	1148.97 ± 2	1537.6 ± 1.8	1542 ± 1.8
x2 = 0.8545	1139.33 ± 2	1132.88 ± 2	1533.7 ± 1.8	1540.5 ± 1.8
x2 = 0.9066	1112.82 ± 2	1106.74 ± 2	1529.4 ± 1.8	1539.1 ± 1.8
x2 = 0.9502	1076.22 ± 2	1070.75 ± 2	1524.9 ± 1.8	1537.8 ± 1.8

CCCCCC[n+]1ccccc1.[Br-] [1-hexylpyridinium bromide] + O
Details	mass density, 308.15 K [kg/m3]	mass density, 318.15 K [kg/m3]	speed of sound, 308.15 K [m/s]	speed of sound, 318.15 K [m/s]
x2 = 0.0609	1235 ± 2.3	1228.39 ± 2.3	1589.8 ± 2.6	1556.2 ± 2.6
x2 = 0.1184	1234.11 ± 2.2	1227.43 ± 2.2	1587.3 ± 2.5	1555.1 ± 2.5
x2 = 0.2091	1232.19 ± 2.2	1225.43 ± 2.2	1583.4 ± 2.4	1553.2 ± 2.4
x2 = 0.2544	1230.93 ± 2.1	1224.15 ± 2.1	1580.7 ± 2.3	1552.2 ± 2.3
x2 = 0.3097	1229.05 ± 2.1	1222.25 ± 2.1	1578.7 ± 2.3	1551.4 ± 2.3
x2 = 0.414	1224.2 ± 2.1	1217.39 ± 2.1	1574.6 ± 2.2	1550 ± 2.1
x2 = 0.4533	1221.81 ± 2.1	1215.01 ± 2.1	1572.9 ± 2.1	1549.3 ± 2.1
x2 = 0.5028	1218.26 ± 2	1211.46 ± 2	1571.8 ± 2.1	1548.7 ± 2.1
x2 = 0.5928	1209.73 ± 2	1202.97 ± 2	1570.1 ± 2	1547.5 ± 2
x2 = 0.6486	1202.64 ± 2	1195.91 ± 2	1565.9 ± 1.9	1547.1 ± 1.9
x2 = 0.7138	1191.79 ± 2	1185.1 ± 2	1561.6 ± 1.9	1546.5 ± 1.9
x2 = 0.7554	1182.79 ± 2	1176.19 ± 2	1557.1 ± 1.9	1545.7 ± 1.9
x2 = 0.7995	1170.69 ± 2	1164.19 ± 2	1551.1 ± 1.8	1545 ± 1.8
x2 = 0.8534	1150.45 ± 2	1144.16 ± 2	1543.3 ± 1.8	1543.3 ± 1.8
x2 = 0.9011	1124.03 ± 2	1118.08 ± 2	1535.9 ± 1.8	1541.3 ± 1.8
x2 = 0.9511	1079.2 ± 2	1073.95 ± 2	1528.1 ± 1.8	1539.1 ± 1.8

CCCCCC[n+]1ccccc1.[Cl-] [1-hexylpyridinium chloride] + O
Details	mass density, 308.15 K [kg/m3]	mass density, 318.15 K [kg/m3]	speed of sound, 308.15 K [m/s]	speed of sound, 318.15 K [m/s]
x2 = 0.0598	1146.46 ± 2.2	1142.37 ± 2.2	1569.2 ± 2.6	1548.7 ± 2.6
x2 = 0.1085	1146.26 ± 2.2	1142.04 ± 2.2	1567.4 ± 2.5	1548.1 ± 2.5
x2 = 0.2068	1145.6 ± 2.1	1141.23 ± 2.1	1564.8 ± 2.4	1547.2 ± 2.4
x2 = 0.2492	1145.16 ± 2.1	1140.76 ± 2.1	1563.9 ± 2.3	1546.6 ± 2.3
x2 = 0.3024	1144.44 ± 2.1	1140.03 ± 2.1	1562.9 ± 2.3	1546 ± 2.3
x2 = 0.4166	1142.05 ± 2	1137.61 ± 2	1560.3 ± 2.1	1544.8 ± 2.1
x2 = 0.4568	1140.82 ± 2	1136.36 ± 2	1559.6 ± 2.1	1544.1 ± 2.1
x2 = 0.5065	1138.92 ± 2	1134.43 ± 2	1557.6 ± 2.1	1543.4 ± 2.1
x2 = 0.6137	1132.92 ± 2	1128.25 ± 2	1553.2 ± 2	1542 ± 2
x2 = 0.6533	1129.75 ± 2	1124.99 ± 2	1550.8 ± 1.9	1541.4 ± 1.9
x2 = 0.709	1124.03 ± 2	1119.08 ± 2	1547.4 ± 1.9	1540.6 ± 1.9
x2 = 0.7521	1118.2 ± 2	1113.12 ± 2	1542.8 ± 1.9	1540 ± 1.9
x2 = 0.7936	1110.94 ± 2	1105.73 ± 2	1539.5 ± 1.8	1539.4 ± 1.8
x2 = 0.8561	1095.34 ± 2	1090.02 ± 2	1534 ± 1.8	1538.6 ± 1.8
x2 = 0.8966	1080.31 ± 2	1074.99 ± 2	1529.9 ± 1.8	1538.2 ± 1.8
x2 = 0.9528	1046.95 ± 2	1042 ± 2	1524.5 ± 1.8	1537.2 ± 1.8

CCCCCCCC[n+]1ccccc1.[Br-] [1-octylpyridinium bromide] + O
Details	mass density, 308.15 K [kg/m3]	mass density, 318.15 K [kg/m3]	speed of sound, 308.15 K [m/s]	speed of sound, 318.15 K [m/s]
x2 = 0.0524	1167.92 ± 2.2	1161.5 ± 2.2	1507.5 ± 2.6	1479.5 ± 2.6
x2 = 0.1125	1167.75 ± 2.2	1161.26 ± 2.2	1508.2 ± 2.5	1481.4 ± 2.5
x2 = 0.2085	1167.44 ± 2.1	1160.87 ± 2.1	1509.1 ± 2.4	1483.4 ± 2.4
x2 = 0.2612	1167.11 ± 2.1	1160.51 ± 2.1	1509.6 ± 2.3	1485 ± 2.3
x2 = 0.3065	1166.66 ± 2.1	1160.04 ± 2.1	1510.1 ± 2.3	1486.3 ± 2.3
x2 = 0.4098	1164.79 ± 2.1	1158.11 ± 2.1	1511.2 ± 2.1	1489.1 ± 2.1
x2 = 0.4611	1163.24 ± 2	1156.52 ± 2	1511.8 ± 2.1	1490.4 ± 2.1
x2 = 0.5075	1161.35 ± 2	1154.59 ± 2	1512.2 ± 2.1	1492 ± 2
x2 = 0.6091	1155.07 ± 2	1148.2 ± 2	1513.8 ± 2	1494.8 ± 2
x2 = 0.6541	1151.03 ± 2	1144.1 ± 2	1514.5 ± 1.9	1497.2 ± 1.9
x2 = 0.7031	1145.4 ± 2	1138.43 ± 2	1515.1 ± 1.9	1502.2 ± 1.9
x2 = 0.7485	1138.7 ± 2	1131.69 ± 2	1516 ± 1.9	1506.7 ± 1.9
x2 = 0.8065	1127.15 ± 2	1120.15 ± 2	1516.8 ± 1.8	1512.5 ± 1.8
x2 = 0.8545	1113.64 ± 2	1106.77 ± 2	1517.5 ± 1.8	1518 ± 1.8
x2 = 0.9065	1091.9 ± 2	1085.37 ± 2	1518.2 ± 1.8	1523.5 ± 1.8
x2 = 0.9503	1062.05 ± 2	1056.24 ± 2	1518.8 ± 1.8	1529.3 ± 1.8

CCCCCCCC[n+]1ccc(C)cc1.[Cl-] [4-methyl-1-octylpyridinium chloride] + O
Details	mass density, 308.15 K [kg/m3]	mass density, 318.15 K [kg/m3]	speed of sound, 308.15 K [m/s]	speed of sound, 318.15 K [m/s]
x2 = 0.0612	1107.62 ± 2.2	1101.69 ± 2.2	1448.6 ± 2.6	1417.4 ± 2.6
x2 = 0.1098	1107.56 ± 2.2	1101.55 ± 2.1	1452 ± 2.5	1421.5 ± 2.5
x2 = 0.2054	1107.52 ± 2.1	1101.39 ± 2.1	1457.5 ± 2.4	1430.4 ± 2.4
x2 = 0.2476	1107.46 ± 2.1	1101.31 ± 2.1	1459.9 ± 2.3	1435.3 ± 2.3
x2 = 0.3088	1107.3 ± 2.1	1101.1 ± 2.1	1463.2 ± 2.3	1439.9 ± 2.3
x2 = 0.4187	1106.44 ± 2	1100.18 ± 2	1468.7 ± 2.1	1451.7 ± 2.1
x2 = 0.4521	1105.97 ± 2	1099.68 ± 2	1472.2 ± 2.1	1454.6 ± 2.1
x2 = 0.5065	1104.89 ± 2	1098.57 ± 2	1475.1 ± 2	1461.8 ± 2
x2 = 0.6021	1101.75 ± 2	1095.32 ± 2	1483.4 ± 2	1475 ± 2
x2 = 0.6532	1099.16 ± 2	1092.65 ± 2	1487.9 ± 1.9	1482.3 ± 1.9
x2 = 0.7042	1095.66 ± 2	1089.07 ± 2	1492.5 ± 1.9	1490.3 ± 1.9
x2 = 0.7565	1090.74 ± 2	1084.09 ± 2	1497.2 ± 1.9	1498.6 ± 1.9
x2 = 0.8029	1084.75 ± 2	1078.06 ± 2	1501.7 ± 1.8	1506.7 ± 1.8
x2 = 0.8577	1074.57 ± 2	1067.97 ± 2	1505.2 ± 1.8	1513.6 ± 1.8
x2 = 0.9035	1061.61 ± 2	1055.25 ± 2	1510.4 ± 1.8	1521.1 ± 1.8
x2 = 0.9511	1039.58 ± 2	1033.92 ± 2	1514.3 ± 1.8	1528.4 ± 1.8

CCCCCCCC[n+]1ccccc1.[Cl-] [N-octylpyridinium chloride] + O
Details	mass density, 308.15 K [kg/m3]	mass density, 318.15 K [kg/m3]	speed of sound, 308.15 K [m/s]	speed of sound, 318.15 K [m/s]
x2 = 0.0625	1128.68 ± 2.2	1122.77 ± 2.2	1483.2 ± 2.6	1452.1 ± 2.6
x2 = 0.1156	1128.57 ± 2.2	1122.56 ± 2.2	1484.1 ± 2.5	1453.2 ± 2.5
x2 = 0.2085	1128.29 ± 2.1	1122.18 ± 2.1	1485.3 ± 2.4	1456.7 ± 2.4
x2 = 0.2545	1128.08 ± 2.1	1121.95 ± 2.1	1486.2 ± 2.3	1458.4 ± 2.3
x2 = 0.306	1127.76 ± 2.1	1121.63 ± 2.1	1488 ± 2.3	1461.8 ± 2.3
x2 = 0.4127	1126.71 ± 2	1120.54 ± 2	1491.7 ± 2.1	1464.8 ± 2.1
x2 = 0.4534	1126.09 ± 2	1119.9 ± 2	1493.7 ± 2.1	1466.1 ± 2.1
x2 = 0.4995	1125.19 ± 2	1118.95 ± 2	1495 ± 2.1	1469.4 ± 2.1
x2 = 0.6103	1121.68 ± 2	1115.24 ± 2	1499.8 ± 2	1473.8 ± 2
x2 = 0.6508	1119.68 ± 2	1113.12 ± 2	1501.8 ± 1.9	1477.2 ± 1.9
x2 = 0.6962	1116.7 ± 2	1110.01 ± 2	1504.9 ± 1.9	1481.8 ± 1.9
x2 = 0.7542	1111.3 ± 2	1104.41 ± 2	1507.1 ± 1.9	1487.1 ± 1.9
x2 = 0.8086	1103.65 ± 2	1096.63 ± 2	1509.4 ± 1.8	1493.7 ± 1.8
x2 = 0.8512	1094.75 ± 2	1087.7 ± 2	1511.3 ± 1.8	1497.9 ± 1.8
x2 = 0.9009	1078.75 ± 2	1071.93 ± 2	1513.2 ± 1.8	1505.5 ± 1.8
x2 = 0.9485	1052.47 ± 2	1046.38 ± 2	1515.5 ± 1.8	1515.2 ± 1.8

— the NIST ThermoML archive (doi:10.1021/acs.jced.6b00460)
